# Test results taken from US4740501A (priority 1985, dated 1988).
# Values joined by “and” are separate entries in the source; they are usually repeats but may differ in a detail not shown here. Equal entries are not always repeated.
# Key:
# [1] = test system: MJY-alpha mammary tumor cell layers; experiment: Tumor cell survival (trypan blue), continuous exposure; format: cell-based, Mouse; conditions: for Percent Tumor Cell Survival / % tumor cell survival / reduction of tumor cell survival: MJY-alpha; for Percent Tumor Cell Survival: treated 24 hr; for reduction of tumor cell survival: 10 microgram/ml
# L-1210 leukemia cells = experiment: Bioassay of tumorigenicity of in vitro treated tumor cells in syngeneic hosts; format: in vivo, BDf1 mice; conditions: for MEAN SURVIVAL TIME (MST) of recipients: L-1210, control 10
# Excerpt: Suspensions of untreated and tripeptide treated MJY-alpha mammary tumor, B-16 melanoma, and L-1210 leukemia cells were adjusted to a concentration of 1×10^7 cells/ml based on the initial tumor cell concentration before the tripeptide exposure. Tumor cells were inoculated into syngeneic hosts at a concentration of 1×10^6 cells in […]. Female BALB/c/Crgl recipients of MJY-alpha mammary tumor cells and male C57BL/6/Jx hosts receiving B16 melanoma cells were inoculated subcutaneously; BDf1 mice were given intraperitoneal injections of L-1210 cells. Subcutaneous tumors were measured along their long and short axes every 1 to 3 days; tumor size is reported as the product of the two measurements (mm^2). The examination periods for mice receiving L-1210, MJY-alpha and B-16 tumor grafts were 45, 80, and 85 days, respectively. All mice were autopsied at the time of death or sacrifice.
# L1210S = experiment: cells; format: cell-based
# L1210DDP = experiment: cells; format: cell-based
# L1210 MTX = experiment: MTX and cisplatin cross-resistance test, 24 hour exposure; format: cell-based
# MMTV polypeptides = format: cell-based, mouse
# MMTV = experiment: Extracellular MMTV protein by ELISA; format: cell-based, mouse; conditions: for ug MMTV protein/150 cm^2 culture: untreated 20.32
# Description: Extracellular MMTV was quantitated using a modification of a direct Enzyme-Linked Immunosorbent Assay (ELISA) technique devised by Khan et al. (1982). Nunc immunoplates were sensitized with MMTV preparations disrupted in 2% NP-40 and serially diluted in 0.15M Na2 CO3 -0.035M NaHCO3 buffer, pH 8.6, by incubation in a moist chamber for 18 hours at 4° C. Wells were washed three times between all procedural steps with 0.01M phosphate-buffered-saline with 0.5% Tween 80, pH 7.4 (Pi/Na/Tween). Sensitized wells were then sequentially subjected to 1 hour incubations with (1) 0.5% bovine serum albumin in Pi/NaCl/Tween (4° C.), followed by either (2) preimmune rabbit sera or multivalent anti-MMTV antisera diluted 1:50 in Pi/NaCl/Tween at 37° C., and finally (3) a 1:1000 dilution of alkaline phosphatase-conjugated goat anti-rabbit IgG (Dynatech, Inc.) at 37° C. Reactions were terminated with 25 ul of 3N NaOH after incubation for 1 to 2 hours at 37° C. Intensity of the color reactions were determined at […] using a Dynatech ELISA plate reader. The detection limit of the assay was 3-5 ng MMTV protein per well.
# [2] = test system: MJY-alpha mammary tumor cell layers; experiment: Morphology of treated cell layers (May-Grunwald-Giemsa); format: cell-based; conditions: 5 and 10 ug/ml for 15 to 60 minutes
# Description: Confluent MJY-alpha mammery tumor cell layers were treated with […] or diluent for 15 or 60 minutes, washed, and then incubated in growth medium. Representative cell layers were fixed and stained with May-Grunwald-Giemsastain from one (1) to seven (7) days after treatment as specified. Hemicysts or domes which are usually observed in short-term cultures of murine, MMTV-induced mammary tumors are not present in MJY-alpha cultures (FIG. 12a and b). […] Cellular pseudopodia were withdrawn and the cytoplasm appeared condensed around the nuclei (FIG. 12c and d). The most striking feature of exposure to high concentrations of PTT.119 was the ruffling of the plasma membrane and the formation of vesicles and blebs. […] This alteration was closely followed by visible increases in the cytosol volume or rarefaction of the cytoplasm (FIG. 12f). The degree of further pathological alterations of MJY-alpha mammary tumor cells was dependent on the dosage of PTT.119 and included lobulation and fragmentation of the nuclei, and the formation of multinuclear cells (FIG. 12f and h). […] Chromosomal condensation was not inhibited in multinucleated cells or in cells with highly lobulated or fragmented nuclei (FIG. 12h).
smiles,measurement,setting,value
"CCOC(=O)[C@H](CCSC)NC(=O)[C@H](Cc1cccc(N(CCCl)CCCl)c1)NC(=O)[C@@H](N)Cc1ccc(F)cc1.Cl [PTT.119, 3-(p-fluorophenyl)-L-alanyl-3-[m-bis(2-chloroethyl)aminophenyl]-L-alanyl-L-methionine ethyl ester hydrochloride]",Percent Tumor Cell Survival,[1]; 1 ug/ml,54%
same,% tumor cell survival,"[1]; 5 ug/ml, 1 hr",100%
same,% tumor cell survival,"[1]; 5 ug/ml, 4 hr",100%
same,% tumor cell survival,"[1]; 5 ug/ml, 8 hr",100%
same,% tumor cell survival,"[1]; 5 ug/ml, 24 hr",53%
same,Percent Tumor Cell Survival,[1]; 5 ug/ml,41%
same,% tumor cell survival,"[1]; 10 ug/ml, 1 hr",100%
same,% tumor cell survival,"[1]; 10 ug/ml, 4 hr",100%
same,% tumor cell survival,"[1]; 10 ug/ml, 8 hr",100%
same,% tumor cell survival,"[1]; 10 ug/ml, 24 hr",53%
same,Percent Tumor Cell Survival,[1]; 10 ug/ml,36%
same,% tumor cell survival,"[1]; 25 ug/ml, 1 hr",100%
same,% tumor cell survival,"[1]; 25 ug/ml, 4 hr",100%
same,% tumor cell survival,"[1]; 25 ug/ml, 8 hr",98%
same,% tumor cell survival,"[1]; 25 ug/ml, 24 hr",25%
same,Percent Tumor Cell Survival,[1]; 25 ug/ml,27%
same,% tumor cell survival,"[1]; 50 ug/ml, 1 hr",98%
same,% tumor cell survival,"[1]; 50 ug/ml, 4 hr",87%
same,% tumor cell survival,"[1]; 50 ug/ml, 8 hr",62%
same,% tumor cell survival,"[1]; 50 ug/ml, 24 hr",19%
same,Percent Tumor Cell Survival,[1]; 50 ug/ml,20%
same,reduction of tumor cell survival,[1]; another 24 hours,25%
same,reduction of tumor cell survival,[1]; zero to 24 hours,8%
same,decrease in mammary tumor cell survival,"[1]; continuous 24 hr exposure, all concentrations tested (0.1 to 50 ug/ml)",46-80%
same,MEAN SURVIVAL TIME (MST) of recipients,"L-1210 leukemia cells; 1 ug/ml, 15 min",10 days
same,MEAN SURVIVAL TIME (MST) of recipients,"L-1210 leukemia cells; 1 ug/ml, 30 min",10 days
same,MEAN SURVIVAL TIME (MST) of recipients,"L-1210 leukemia cells; 1 ug/ml, 60 min",11 days
same,MEAN SURVIVAL TIME (MST) of recipients,"L-1210 leukemia cells; 1 ug/ml, 120 min",13 days
same,MEAN SURVIVAL TIME (MST) of recipients,"L-1210 leukemia cells; 5 ug/ml, 15 min",13 days
same,MEAN SURVIVAL TIME (MST) of recipients,"L-1210 leukemia cells; 5 ug/ml, 30 min",21 days
same,MEAN SURVIVAL TIME (MST) of recipients,"L-1210 leukemia cells; 5 ug/ml, 60 min",32 days
same,MEAN SURVIVAL TIME (MST) of recipients,"L-1210 leukemia cells; 10 ug/ml, 15 min",8 days
same,ILS (increased life span),L-1210 leukemia cells; L-1210 cells treated with 5 ug for 30 min,110%
same,ILS (increased life span),L-1210 leukemia cells; L-1210 cells treated with 5 ug for 60 min,220%
same,tumor growth in recipient mice,L-1210 leukemia cells; L-1210 cells treated with 5 ug for 2 hr,No tumor growth
same,tumor growth in recipient mice,L-1210 leukemia cells; L-1210 cells treated with 10 ug for 30 min or longer,No tumor growth
same,IC50,"L1210S; 24 h, read-out: T.C.D.50",2380 nM
same,T.C.D.100,"L1210S; L1210S, 24 hours exposure",7.5 µM
same,IC50,"L1210DDP; 24 h, read-out: T.C.D.50",525 nM
same,concentration at which remaining L1210DDP population becomes sensitive,L1210DDP; 24 hours exposure,4 to 15 µM
same,share of L1210DDP cells highly susceptible,"L1210DDP; doses of 1 uM, 24 hours",Approximately 60%
same,T.C.D.100,"L1210 MTX; L1210 MTX, 24 hours exposure",3.75 µM
same,IC50,"L1210 MTX; Mus musculus, L1210, 24 h, read-out: T.C.D.50",1940 nM
same,decrease of level of p24 compared to virions from solvent cultures,MMTV polypeptides,36%
same,level of nonglycosylated protein p24 in MMTV particles,MMTV polypeptides,substantial decreases
same,level of p24 protein in the virion core,MMTV polypeptides,diminution
same,reduction in p24,MMTV polypeptides,71%
same,relative level of p24 compared to control,MMTV polypeptides,35-40%
same,"relative contribution of p24 in the virions, % of control level",MMTV polypeptides; hydrochloride,54% and 74% and 65%
same,levels of extracellular MMTV compared to control cells,"MMTV; 0.15, 1.5 and 7.5 uM, after 10 in vitro passages",less than 50%
same,ug MMTV protein/150 cm^2 culture,"MMTV; continual 0.15 uM, passage 1",17.4 µg
same,ug MMTV protein/150 cm^2 culture,"MMTV; continual 0.15 uM, passage 5-6",16.8 µg
same,ug MMTV protein/150 cm^2 culture,"MMTV; continual 0.15 uM, passage 9-10",9.52 µg
same,ug MMTV protein/150 cm^2 culture,"MMTV; continual 1.5 uM, passage 5-6",15.9 µg
same,ug MMTV protein/150 cm^2 culture,"MMTV; continual 1.5 uM, passage 9-10",7.5 µg
same,ug MMTV protein/150 cm^2 culture,"MMTV; continual 7.5 uM, passage 5-6",11.8 µg
same,ug MMTV protein/150 cm^2 culture,"MMTV; continual 7.5 uM, passage 9-10",8.3 µg
same,"MMTV protein, % of control level","MMTV; day 1, 15 uM 2 hr pulse",78%
same,ug MMTV protein/75 cm^2 flask,"MMTV; day 1, 15 uM 2 hr pulse, control 20.6",16.0 µg
same,"MMTV protein, % of control level","MMTV; day 1, 15 uM 4 hr pulse",81%
same,ug MMTV protein/75 cm^2 flask,"MMTV; day 1, 15 uM 4 hr pulse, control 20.6",16.7 µg
same,"MMTV protein, % of control level","MMTV; day 1, 37.5 uM 0.5 hr pulse",70%
same,ug MMTV protein/75 cm^2 flask,"MMTV; day 1, 37.5 uM 0.5 hr pulse, control 20.6",14.4 µg
same,"MMTV protein, % of control level","MMTV; day 1, 37.5 uM 1.0 hr pulse",53%
same,ug MMTV protein/75 cm^2 flask,"MMTV; day 1, 37.5 uM 1.0 hr pulse, control 20.6",11.0 µg
same,"MMTV protein, % of control level","MMTV; day 2, 15 uM 2 hr pulse",64%
same,ug MMTV protein/75 cm^2 flask,"MMTV; day 2, 15 uM 2 hr pulse, control 19.3",12.3 µg
same,"MMTV protein, % of control level","MMTV; day 2, 15 uM 4 hr pulse",62%
same,ug MMTV protein/75 cm^2 flask,"MMTV; day 2, 15 uM 4 hr pulse, control 19.3",11.9 µg
same,"MMTV protein, % of control level","MMTV; day 2, 37.5 uM 0.5 hr pulse",57%
same,ug MMTV protein/75 cm^2 flask,"MMTV; day 2, 37.5 uM 0.5 hr pulse, control 19.3",11.0 µg
same,"MMTV protein, % of control level","MMTV; day 2, 37.5 uM 1.0 hr pulse",58%
same,ug MMTV protein/75 cm^2 flask,"MMTV; day 2, 37.5 uM 1.0 hr pulse, control 19.3",11.2 µg
same,"MMTV protein, % of control level","MMTV; day 7, 15 uM 2 hr pulse",31%
same,ug MMTV protein/75 cm^2 flask,"MMTV; day 7, 15 uM 2 hr pulse, control 35.2",11.0 µg
same,"MMTV protein, % of control level","MMTV; day 7, 15 uM 4 hr pulse",22%
same,ug MMTV protein/75 cm^2 flask,"MMTV; day 7, 15 uM 4 hr pulse, control 35.2",7.6 µg
same,"MMTV protein, % of control level","MMTV; day 7, 37.5 uM 0.5 hr pulse",16%
same,ug MMTV protein/75 cm^2 flask,"MMTV; day 7, 37.5 uM 0.5 hr pulse, control 35.2",5.8 µg
same,"MMTV protein, % of control level","MMTV; day 7, 37.5 uM 1.0 hr pulse",3%
same,ug MMTV protein/75 cm^2 flask,"MMTV; day 7, 37.5 uM 1.0 hr pulse, control 35.2",0.9 µg
same,appearance of cell layers,[2],appeared unchanged
